One assay deals with T1, pY705-STAT3 in PBMC (Homo sapiens, UniProt P40763).
T1 construct: Cryopreserved Peripheral Blood Mononuclear Cells (PBMC) are from AllCells; host or cells: cryopreserved PBMC
Nature of the assay: MSD-pSTAT-PBMC Assay (pSTAT3, IL-6 stimulated). The settings on record: PBMC, compound 3 hrs, then 10 ng/mL IL-6 for 10 min. The format is cell-based. Summed up:
(§1)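 MSD electrochemiluminescence read-out: total STAT captured, probed with anti-pY641-STAT6 or anti-pY705-STAT3. Human PBMC, 3 h compound pretreatment, 10 min stimulation (IL-4 1 ng/mL or IL-6 10 ng/mL). Unstimulated signal subtracted, DMSO-normalized, variable-slope IC50.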

Another assay has as its target T2, pY641-STAT6 in PBMC (Homo sapiens, UniProt P42226).
T2 construct: Cryopreserved Peripheral Blood Mononuclear Cells (PBMC) are from AllCells; host or cells: cryopreserved PBMC
T2 sequence (P42226 1-847): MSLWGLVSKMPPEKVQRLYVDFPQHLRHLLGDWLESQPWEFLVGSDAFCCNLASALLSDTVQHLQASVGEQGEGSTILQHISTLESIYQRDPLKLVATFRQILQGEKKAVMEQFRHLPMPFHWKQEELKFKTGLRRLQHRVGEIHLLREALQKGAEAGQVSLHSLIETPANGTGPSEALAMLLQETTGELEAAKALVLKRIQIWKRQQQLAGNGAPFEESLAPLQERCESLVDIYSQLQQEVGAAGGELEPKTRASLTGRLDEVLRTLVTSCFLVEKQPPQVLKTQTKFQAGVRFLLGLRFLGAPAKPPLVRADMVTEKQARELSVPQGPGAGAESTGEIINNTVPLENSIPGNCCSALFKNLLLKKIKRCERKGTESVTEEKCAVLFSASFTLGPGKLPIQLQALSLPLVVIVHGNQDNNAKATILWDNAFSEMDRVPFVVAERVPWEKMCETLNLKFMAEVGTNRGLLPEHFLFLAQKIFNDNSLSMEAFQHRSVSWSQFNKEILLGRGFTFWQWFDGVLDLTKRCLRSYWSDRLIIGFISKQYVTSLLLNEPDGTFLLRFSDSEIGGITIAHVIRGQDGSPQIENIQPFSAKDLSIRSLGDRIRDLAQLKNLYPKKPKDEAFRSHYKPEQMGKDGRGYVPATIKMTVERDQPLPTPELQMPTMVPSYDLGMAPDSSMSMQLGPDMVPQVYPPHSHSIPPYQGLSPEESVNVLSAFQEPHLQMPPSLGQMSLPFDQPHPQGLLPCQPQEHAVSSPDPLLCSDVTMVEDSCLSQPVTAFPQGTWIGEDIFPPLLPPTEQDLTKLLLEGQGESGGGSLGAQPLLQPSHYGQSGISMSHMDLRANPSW
Kind of assay: MSD-pSTAT-PBMC Assay (pSTAT6, IL-4 stimulated). The format is cell-based. The settings on record: compound 3 hrs, then 1 ng/mL IL-4 for 10 min. In a few lines: as §1

Where [1] appears, read: PBMC, Table 1114, read-out: pSTAT6.
The mark [2] stands for this setting: PBMC, Table 115, read-out: STAT6.

Each structure is given as a SMILES string. Where two headings read alike, the source gives them in different places.

T1 sequence (P40763 whole entry): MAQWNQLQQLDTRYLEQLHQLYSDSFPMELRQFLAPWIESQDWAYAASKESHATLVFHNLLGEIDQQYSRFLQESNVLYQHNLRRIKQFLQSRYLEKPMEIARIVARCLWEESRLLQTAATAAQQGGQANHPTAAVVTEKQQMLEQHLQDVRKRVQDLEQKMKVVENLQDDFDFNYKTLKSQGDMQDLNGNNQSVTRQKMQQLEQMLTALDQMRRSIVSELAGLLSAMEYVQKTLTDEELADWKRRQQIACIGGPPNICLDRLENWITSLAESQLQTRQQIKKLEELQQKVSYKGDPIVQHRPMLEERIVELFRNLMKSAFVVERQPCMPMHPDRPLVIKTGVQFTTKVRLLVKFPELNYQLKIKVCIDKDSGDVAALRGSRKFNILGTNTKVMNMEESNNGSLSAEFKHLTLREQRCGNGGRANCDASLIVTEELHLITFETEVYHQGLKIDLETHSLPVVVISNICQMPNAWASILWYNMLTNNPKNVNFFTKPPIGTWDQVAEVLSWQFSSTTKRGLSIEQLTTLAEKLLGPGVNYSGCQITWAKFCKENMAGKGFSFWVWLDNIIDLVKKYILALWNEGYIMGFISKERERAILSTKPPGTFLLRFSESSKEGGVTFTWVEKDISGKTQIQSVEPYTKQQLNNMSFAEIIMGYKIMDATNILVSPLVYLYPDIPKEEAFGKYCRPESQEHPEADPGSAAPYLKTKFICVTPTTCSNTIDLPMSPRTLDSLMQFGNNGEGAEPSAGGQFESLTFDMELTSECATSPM

On to `CCCC(=O)SCCOP(=O)(OCCSC(=O)CCC)C(F)(F)c1ccc2sc(C(=O)N[C@H]3CCCC[C@H]4CC[C@@H](C(=O)N5C[C@@H](C#N)[C@H](c6ccccc6)C5)N4C3=O)cc2c1` (relative stereo) [Compound 126, S,S′-(((((2-(((3S,6S,10aS)-3-(rel-trans)-3-cyano-4-phenylpyrrolidine-1-carbonyl)-5-oxodecahydro-pyrrolo[1,2-a]azocin-6-yl)carbamoyl)benzo[b]thiophen-5-yl)difluoromethyl)phosphoryl)bis(oxy)) bis(ethane-2,1-diyl)) dibutanethioate], for which the IC50 was 100 to 1000 nM on pY705-STAT3 in PBMC (Table 1114, read-out: pSTAT3) and below 100 nM on pY641-STAT6 in PBMC (setting [1]).

Take `CC(C)(C)C(=O)OCOP(=O)(OCOC(=O)C(C)(C)C)C(F)(F)c1ccc2sc(C(=O)N[C@H]3CCCCC4CC[C@@H](C(=O)N5C[C@H](C6CCCCC6)[C@@H](C#N)C5)N4C3=O)cc2c1` (relative stereo) [Compound 143, ((((2-(((3S,6S,10aS)-3-(rel-(trans)-3-cyano-4-cyclohexyl-pyrrolidine-1-carbonyl)-5-oxodecahydro-pyrrolo[1,2-a]azocin-6-yl)carbamoyl)benzo[b]thiophen-5-yl)difluoromethyl)phosphoryl)bis (oxy))bis (methylene) bis (2,2-dimethyl-propanaote)]: the IC50 was 100 to 1000 nM on pY705-STAT3 in PBMC (Table 1114, read-out: pSTAT3) and below 100 nM on pY641-STAT6 in PBMC (setting [1]).

In the case of `CC(C)(C)C(=O)OCOP(=O)(OCOC(=O)C(C)(C)C)C(F)(F)c1ccc2sc(C(=O)N[C@H]3CCCCC[C@H]4CC[C@@H](C(=O)N5C[C@@H](C#N)[C@H](c6ccccc6)C5)N4C3=O)cc2c1` (relative stereo) [Compound 146, ((((2-(((3S,6S,11aS)-3-(rel-(trans)-3-cyano-4-phenylpyrrolidine-1-carbonyl)-5-oxodecahydro-1H-pyrrolo[1,2-a]azonin-6-yl)carbamoyl)benzo[b]thiophen-5-yl)difluoromethyl)phosphoryl)bis (oxy))bis(methylene) bis(2,2-dimethyl-propanoate)], the IC50 at pY705-STAT3 in PBMC (Table 1114, read-out: pSTAT3) is 1000 to 3000 nM; on pY641-STAT6 in PBMC (setting [1]), below 100 nM.

As for `CC(C)(C)C(=O)OCOP(=O)(OCOC(=O)C(C)(C)C)C(F)(F)c1ccc2sc(C(=O)N[C@@]3(C)CCCCC4CC[C@@H](C(=O)N5C[C@H](c6ccccc6)[C@@H](C#N)C5)N4C3=O)cc2c1` (relative stereo) [Compound 151, ((((2-(((3S,6S,10aS)-3-(rel-trans)-3-cyano-4-phenylpyrrolidine-1-carbonyl)-6-methyl-5-oxodecahydro-pyrrolo[1,2-a]azocin-6-yl)carbamoyl)benzo[b]thiophen-5-yl)difluoromethyl)phosphoryl)bis (oxy))bis (methylene) bis(2,2-dimethylpropanoate)], the IC50 at pY705-STAT3 in PBMC (Table 1114, read-out: pSTAT3) was in the range of 100 to 1000 nM; on pY641-STAT6 in PBMC (setting [1]) it was 100 to 1000 nM.

`CC(C)(C)C(=O)SCCOP(=O)(OCCSC(=O)C(C)(C)C)C(F)(F)c1ccc2sc(C(=O)N[C@H]3CCCC[C@H]4CC[C@@H](C(=O)N5C[C@@H](C#N)[C@H](c6cc[nH]c(=O)c6)C5)N4C3=O)cc2c1` (relative stereo) [Compound 157, S,S′-(((((2-(((3S,6S,10aS)-3-(rel-(trans)-3-cyano-4-(2-oxo-1,2-dihydropyridin-4-yl)pyrrolidine-1-carbonyl)-5-oxodecahydro-pyrrolo[1,2-a]azocin-6-yl)carbamoyl)benzo [b]thiophen-5-yl)difluoromethyl)phosphoryl)bis(oxy))bis(ethane-2,1-diyl)) bis(2,2-dimethylpropane-thioate)]: the IC50 fell in the range of 100 to 1000 nM at pY705-STAT3 in PBMC (Table 1114, read-out: pSTAT3) and 100 to 1000 nM at pY641-STAT6 in PBMC (setting [1]).

Consider `CC(C)(C)C(=O)OCOP(=O)(OCOC(=O)C(C)(C)C)C(F)(F)c1ccc2sc(C(=O)N[C@H]3CCCC[C@H]4CC[C@@H](C(=O)N5C[C@H](c6ccccc6)[C@@H](C#N)C5)N4C3=O)cc2c1` (relative stereo) [Compound 190, ((((2-(((3S,6S,10aS)-3-(rel- trans)-3-cyano-4-phenyl-pyrrolidine-1-carbonyl)-5-oxodecahydro-pyrrolo[1,2-a]azocin-6-yl)carbamoyl)benzo[b]thiophen-5-yl)difluoro-methyl)phos-phoryl)bis(oxy)) bis(methylene) bis(2,2-dimethyl-propanoate)], for which the IC50 was below 100 nM on pY705-STAT3 in PBMC (Table 1114, read-out: pSTAT3) and below 100 nM on pY641-STAT6 in PBMC (setting [1]).

On to `CC(C)(C)C(=O)OCOP(=O)(OCOC(=O)C(C)(C)C)C(F)(F)c1ccc2ccc(C(=O)N[C@H]3CCCC[C@H]4CC[C@@H](C(=O)N5C[C@H](c6ccccc6)[C@@H](C#N)C5)N4C3=O)cc2c1` (relative stereo) [Compound 194, ((((7-(((3S,6S,10aS)-3-(rel-(trans)-3-cyano-4-phenyl-pyrrolidine-1-carbonyl)-5-oxodecahydro-pyrrolo[1,2-a]azocin-6-yl)carbamoyl)naphthalen-2-yl)difluoro-methyl)phos-phoryl)bis(oxy)) bis(methylene) bis(2,2-dimethyl-propanoate)], for which the IC50 at pY705-STAT3 in PBMC (Table 1114, read-out: pSTAT3) was 100 to 1000 nM; on pY641-STAT6 in PBMC (setting [1]), below 100 nM.

Take `CCCOC(=O)[C@H](C)NP(=O)(Oc1ccccc1)C(F)c1ccc2sc(C(=O)N[C@H]3CCCC[C@H]4CC[C@@H](C(=O)N5C[C@@H](c6ccccc6)[C@H](C#N)C56CC6)N4C3=O)cc2c1` (relative stereo) [Compound 325, propyl (((2-(((3S,6S,10aS)-3-((rel-trans)-7-cyano-6-phenyl-4-azaspiro[2.4]heptane-4-carbonyl)-5-oxodecahydropyrrolo [1,2-a]azocin-6-yl)carbamoyl)benzo [b]thiophen-5-yl)fluoromethyl) (phenoxy)phosphoryl)-L-alaninate]: the IC50 at pY705-STAT3 in PBMC (Table 115, read-out: STAT3) was above 3000 nM; on pY641-STAT6 in PBMC (setting [2]), below 100 nM.

On to `CCCOC(=O)[C@H](C)NP(=O)(Oc1ccccc1)[C@@H](F)c1ccc2sc(C(=O)N[C@H]3CCCC[C@H]4CC[C@@H](C(=O)N5C[C@H](c6cccc(F)c6)C(C#N)C56CC6)N4C3=O)cc2c1` (relative stereo) [Compound 337, propyl (((R)-(2-(((3S,6S,10aS)-3-((rel-trans)-7-cyano-6-(3-fluorophenyl)-4-azaspiro[2.4]heptane-4-carbonyl)-5-oxodecahydropyrrolo [1,2-a]azocin-6-yl)carbamoyl)benzo [b]thiophen-5-yl)fluoromethyl) (phenoxy)phosphoryl)-L-alaninate], for which the IC50 at pY705-STAT3 in PBMC (Table 115, read-out: STAT3) was above 3000 nM; against pY641-STAT6 in PBMC (STAT6, PBMC, Table 115) it was below 100 nM.

Consider `CC(C)CC(=O)SCCOP(=O)(OCCSC(=O)CC(C)C)C(F)(F)c1ccc2ccc(C(=O)N[C@H]3CCCC[C@H]4CC[C@@H](C(=O)N5CC(n6ccnn6)[C@H](O)C5)N4C3=O)cc2c1` (relative stereo) [Compound 1086, S,S′-((((difluoro(7-(((3S,6S,10aS)-3-((rel-trans)-3-hydroxy-4-(1H-1,2,3-triazol-1-yl)pyrrolidine-1-carbonyl)-5-oxodecahydro-pyrrolo [1,2-a]azocin-6-yl)carbamoyl)naphthalen-2-yl)methyl)phosphoryl)bis(oxy))bis(ethane-2,1-diyl)) bis(3-methylbutanethioate)], for which the IC50 at pY705-STAT3 in PBMC (Table 115, read-out: STAT3) is below 100 nM; at pY641-STAT6 in PBMC (setting [2]) it was 100 to 1000 nM.

For the compound `CCCC(=O)SCCOP(=O)(Cc1ccc2sc(C(=O)N[C@H]3CCCC[C@H]4CC[C@@H](C(=O)N5CC(C#N)C(c6ccccc6)C5)N4C3=O)cc2c1)OCCSC(=O)CCC` (single isomer, unassigned) [Compound 125, S,S′-(((((2-(((3S,6S,10aS)-3-((3S,4R or 3R,4S)-3-cyano-4-phenylpyrrolidine-1-carbonyl)-5-oxodecahydropyrrolo[1,2-a]azocin-6-yl)carbamoyl)benzo[b]thiophen-5-yl)methyl)phosphoryl)bis(oxy))bis(ethane-2,1-diyl))dibutanethioate], the IC50 at pY705-STAT3 in PBMC (Table 1114, read-out: pSTAT3) is above 3000 nM; on pY641-STAT6 in PBMC (setting [1]), 1000 to 3000 nM.
